Molecules are shown by their SMILES.

The target in one series is T1, hα7-wt nAChR (Homo sapiens, UniProt P36544).
T1 construct: expressed in transfected cells
As to the kind of experiment: Ca2+ flux imaging (FDSS) (Protocol B), potentiation of the choline response. The format is cell-based. As to conditions: Ca2+ assay as described in D.1; for EC50: "<5" = activity did not reach a top plateau at maximal concentration; for Emax: read-out: % Efficacy. Summed up: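 Cells expressing hα7-wt nAChR, loaded with fluo-4AM (2 μM final) in HBSS with 10 mM HEPES, 5 mM CaCl2, 0.1% BSA and probenecid; compound (0.01–30 μM) added up to 10 min before 100 μM choline. Peak fluorescence potentiation relative to choline alone (100%); EC50 from sigmoidal curve.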
In general terms: A change in cytosolic calcium serves as a functional read-out for many receptors and channels.

The target in series [1] is T2, hα7-wt nAChR-expressing GH4C1 cells (Homo sapiens, UniProt P36544).
T2 construct: expressed in transfected cells
As to the kind of experiment: Patch-clamp current recording (whole-cell voltage clamp), potentiation of the choline current and PAM type. The format is cell-based. Set-up: key: Type 0 compounds minimally enhance the effect size of the current elicited by 1 mM choline.; Type 1 compounds enhance the effect size of the current elicited by 1 mM choline but minimally alter the kinetics of the receptor.; Type 2 compounds enhance the effect size of the current elicited by 1 mM choline while reducing the rate and/or the extent of desensitization.; Type 3 compounds enhance the effect size of the current elicited by 1 mM choline. When tested at higher concentrations up to 10 μM they completely inhibit desensitization, in particular a 1 mM choline application of 250 milliseconds.; Type 4 compounds allow for an initial desensitization of the receptor followed by a re-opening of the receptor during agonist application. The note with it: 1 mM choline. Summed up:
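Whole-cell voltage clamp at −70 mV of GH4C1 cells stably expressing human wild-type α7, with compound co-applied with 1 mM choline via rapid (<100 ms) application; external solution pH 7.3 with 1 mM Ca, CsCl-based internal. Peak-current potentiation relative to choline alone (=100%); compounds reaching ≥200% assigned PAM type 0-4 from desensitization kinetics.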
A general note: Patch clamp records ionic current or voltage across a cell membrane.

T1 sequence (P36544 23-502): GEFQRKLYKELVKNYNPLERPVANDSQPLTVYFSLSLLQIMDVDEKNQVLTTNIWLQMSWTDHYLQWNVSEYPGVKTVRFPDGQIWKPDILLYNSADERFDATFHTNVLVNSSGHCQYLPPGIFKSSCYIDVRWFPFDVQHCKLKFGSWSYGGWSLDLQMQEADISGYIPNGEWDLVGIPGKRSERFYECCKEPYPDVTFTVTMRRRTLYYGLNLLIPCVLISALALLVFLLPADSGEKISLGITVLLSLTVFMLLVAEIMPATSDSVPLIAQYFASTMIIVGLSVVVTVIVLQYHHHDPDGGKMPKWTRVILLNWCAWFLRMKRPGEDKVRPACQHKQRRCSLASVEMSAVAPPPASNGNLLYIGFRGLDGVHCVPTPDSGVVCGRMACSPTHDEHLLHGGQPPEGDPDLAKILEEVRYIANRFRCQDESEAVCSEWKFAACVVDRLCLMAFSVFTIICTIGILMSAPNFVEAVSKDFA
T2 sequence (P36544 23-502): as above

As a reminder, the EC50 is the concentration that produces a half-maximal response. As a reminder, the melting point is the temperature, or range, at which the solid turns liquid. `CNC(=O)Cn1nc(Nc2ccc3c(c2)OC(F)(F)O3)cc1-c1ccc2c(c1)OCCO2` [compound 97] displayed a melting point of 171.5 to 171.8 °C. The half-maximal effective concentration (EC50) at hα7-wt nAChR was 1120 nM.
For the molecule `CNC(=O)Cn1nc(Nc2ccc(F)c(F)c2)cc1-c1ccc2c(c1)OCCO2` [compound 7, 3-[(3,4-difluorophenyl)amino]-5-(2,3-dihydro-1,4-benzodioxin-6-yl)-N-methyl-1H-pyrazole-1-acetamide], the melting point lay in the range of 189.5 to 194.5 °C. The EC50 at hα7-wt nAChR was 195 nM. Also, the PAM type in series [1] stood at 2.
On the same counts, the results for `CNC(=O)Cn1nc(Nc2ccc(F)cc2)cc1-c1ccc2c(c1)OCCO2` [compound 73] are 169.9 to 177.3 °C, 437 nM and 3.
Regarding `CC[C@H](O)Cn1nc(Nc2cccc(Cl)c2)cc1-c1ccnc(C)c1` [compound 185, (alphaS)-3-[(3-chlorophenyl)amino]-alpha-ethyl-5-[2-methyl-4-pyridinyl]-1H-pyrazole-1-ethanol], the half-maximal effective concentration (EC50) on hα7-wt nAChR was 1580 nM. In series [1], the PAM type was 1.
In the case of `Cc1cc(-c2cc(Nc3cccc(Cl)c3F)nn2CC(=O)NCC2CC2)ccn1` [compound 170], at hα7-wt nAChR, the 50% effective concentration (EC50) is 186 nM and the Emax came out at 783%. In series [1], the PAM type is given as 2.
As for `COCc1cc(-c2cc(Nc3ccc(F)c(F)c3)nn2CCC(=O)N(C)C)ccn1` [compound 70], the EC50 at hα7-wt nAChR is 1350 nM. For the same molecule, in series [1], the PAM type was found to be 3.
On the same counts, the results for `CC[C@H](O)Cn1nc(Nc2cc(Cl)cc(OC)c2)cc1-c1ccnc(C)c1` [compound 122] are 1020 nM and 1.
On the same counts, the results for `CC[C@H](O)Cn1nc(Nc2ccc(F)c(C(F)(F)F)c2)cc1-c1ccnc(C)c1` [compound 46] are 891 nM and 0.
In the case of `CNC(=O)Cn1nc(Nc2cccc(F)c2)cc1-c1ccc2c(c1)OCCO2` [compound 72], the melting point lay within 189.5 to 194 °C. In addition, the 50% effective concentration (EC50) on hα7-wt nAChR was 646 nM. In series [1], the PAM type came out at 2.
Consider `CC[C@H](O)Cn1nc(Nc2cccc(Cl)c2F)cc1-c1ccnc(C)c1` [compound 118], for which, on hα7-wt nAChR, the EC50 is 1170 nM and the Emax amounted to 633%. For the same molecule, in series [1], the PAM type is 0.
`CCNC(=O)Cn1nc(Nc2ccc3c(c2)OC(F)(F)O3)cc1-c1ccncc1C` [compound 91]: at hα7-wt nAChR, the concentration for a half-maximal effect (EC50) was 2630 nM. Besides, the PAM type in series [1] is recorded as 2.
The matching figures for `CCNC(=O)Cn1nc(Nc2ccc3c(c2)OC(F)(F)O3)cc1-c1ccncc1` [compound 87]: 871 nM and 3.
In the case of `CCNC(=O)Cn1nc(Nc2ccc3c(c2)OC(F)(F)O3)cc1-c1ccnc(C)c1` [compound 93], on hα7-wt nAChR, the EC50 was 1000 nM. The PAM type in series [1] was determined as 2.
On the same counts, the results for `CCNc1cc(-c2cc(Nc3ccc(F)c(F)c3F)nn2C[C@@H](O)CC)ccn1` [compound 135] are 759 nM and 1.
On the same counts, the results for `COCc1cc(-c2cc(Nc3ccc4c(c3)OC(F)(F)O4)nn2CCC(=O)N(C)C)ccn1` [compound 96] are 182 nM and 3.
The matching figures for `CCNC(=O)Cn1nc(Nc2cc(Cl)cc(OC)c2)cc1-c1ccnc(C)c1` [compound 108]: 1860 nM and 2.
As for `CN(C)C(=O)CCn1nc(Nc2ccc(F)cc2)cc1-c1ccc2c(c1)OCCO2` [compound 83], the melting point was in the range of 141.6 to 143.2 °C. Moreover, the EC50 on hα7-wt nAChR was 117 nM.
Turning to `CC[C@H](O)Cn1nc(Nc2ccc(F)c(F)c2)cc1-c1ccnc(COC)c1` [compound 6, (alphaS)-3-[(3,4-difluorophenyl)amino]-alpha-ethyl-5-[2-(methoxymethyl)-4-pyridinyl]-1H-pyrazole-1-ethanol], on hα7-wt nAChR, the EC50 is 1150 nM. For the same molecule, the PAM type in series [1] is reported as 2.
On the same counts, the results for `CNC(=O)Cn1nc(Nc2cccc(Cl)c2F)cc1-c1ccnc(COC)c1` [compound 106] are 1950 nM and 2.
Turning to `CCNC(=O)Cn1nc(Nc2ccc(F)c(F)c2)cc1-c1cc(C)nc(C)c1` [compound 151], at hα7-wt nAChR, the 50% effective concentration (EC50) was 550 nM and the Emax was determined as 749%. For the same molecule, the PAM type in series [1] amounted to 2.
As to `Cc1cc(-c2cc(Nc3cccc(Cl)c3)nn2CCC(=O)N(C)C)cc(C)n1` [compound 56], the EC50 at hα7-wt nAChR was 525 nM. Moreover, the PAM type in series [1] came out at 2.
Consider `Cc1cc(-c2cc(Nc3cccc(OC(F)(F)F)c3)nn2CCC(=O)N(C)C)cc(C)n1` [compound 165], for which, on hα7-wt nAChR, the concentration giving a half-maximal response (EC50) is 363 nM and the Emax stood at 738%. Further, the PAM type in series [1] is given as 1.

Values taken from patent publication US8779158B2, “Trisubstituted pyrazoles as acetylcholine receptor modulators” (Janssen Pharmaceutica NV, priority 2008, dated 2014).
